Reference: patent US10899723B2, “Heterocyclic containing cyclopropyl FXR modulators” (Hepagene Therapeutics (HK) Limited, priority 2016, dated 2021)
Structures can show the parent of a compound that is named as a salt.

Legend:
FXR = biological target: T1, FXR (Homo sapiens, UniProt Q96RI1); test: FXR Transactivation Assay (pBIND-FXR / pGL4.35 luciferase reporter in HEK293T); format: cell-based; details: HEK293T cells
T1 construct: expressed in transfected cells; host or cells: HEK293T
T1 sequence (Q96RI1 1-486): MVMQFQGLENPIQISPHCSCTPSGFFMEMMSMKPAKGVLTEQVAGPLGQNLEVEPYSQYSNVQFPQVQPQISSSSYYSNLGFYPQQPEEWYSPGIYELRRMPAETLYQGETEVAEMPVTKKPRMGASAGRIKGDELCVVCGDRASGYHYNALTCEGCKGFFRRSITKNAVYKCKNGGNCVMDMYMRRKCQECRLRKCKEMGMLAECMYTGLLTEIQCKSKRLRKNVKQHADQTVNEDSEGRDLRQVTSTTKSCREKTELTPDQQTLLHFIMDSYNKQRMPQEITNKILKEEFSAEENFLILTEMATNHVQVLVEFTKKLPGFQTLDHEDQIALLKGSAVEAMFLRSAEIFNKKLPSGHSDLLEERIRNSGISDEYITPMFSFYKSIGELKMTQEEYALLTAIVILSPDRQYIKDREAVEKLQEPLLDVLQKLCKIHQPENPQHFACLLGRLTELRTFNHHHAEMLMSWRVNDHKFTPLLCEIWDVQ
Procedure: FXR Transactivation Assay
pGL4.35 [luc2P/9XGAL4 UAS/Hygro]
DMEM medium, high glucose
Fetal Bovine Serum (FBS, heat-inactivated)
Penicillin-Streptomycin (10000 U/ml, 100 ml)
DMEM, High Glucose, HEPES, no Phenol Red
Opti-MEM® I Reduced Serum Medium
Steady-Glo™ Luciferase Assay System
TransIT-293 Transfection Reagent
GW4064 as a positive control
(§1) • 1. Hek293T cells were plated at 1.1*10^6/ml into a 100 mm dish. • 2. Cells were transfected with 8.4 μg of pBind-FXR, 1.26 μg of the reporter vector pGL4.35 (Promega). Cells were incubated at 37° C. under 5% CO2 atmosphere. • 3. All of compounds were 3-fold serial diluted from 10 mM stock for 10 doses in DMSO. • 4. Transfer compound dilutions into 384 well assay plates using liquid workstation. • 5. Seed 25 ul HEK293T cells into 384 well assay plate (prepared step 4) at 0.6*10^5/ml. Cells were incubated at 37° C. under 5% CO2 atmosphere overnight. • 6. Add 25 ul steady-Glo™ Luciferase Assay Reagent into each well of 384-well assay plate. • 7. Record the luminescence value on Envision 2104 plate reader. • 8. Calculate EC50 by fitting % Activity values and log of compound concentrations to nonlinear regression (dose response−variable slope) with Graphpad 5.0. FXR Coactivator Assay Reagents: LanthaScreen™ TR-FRET Farnesoid X Receptor Coactivator Assay GW4064 as a positive control Process: • 1. All of compounds were 3-fold serial diluted from 10 mM stock for 10 doses in DMSO. • 2. Dilute each 100× agonist serial dilution to 2× using Complete Coregulator buffer G. • 3. Transfer 10 μl of each of the 2× agonist serial dilutions to 384 well assay plates. • 4. […] Incubate at room temperature protected from light. • 7. Read the plate at wavelengths of 520 nm and 495 nm on Envision 2104 plate reader. • 8. Calculate the TR-FRET ratio by dividing the emission signal at 520 nm by the emission signal at 495 nm. • 9. Calculate EC50 by fitting % Activity values and log of compound concentrations to nonlinear regression (dose response−variable slope) with Graphpad 5.0.

FXR-LBD = biological target: T2, FXR-LBD (Homo sapiens, UniProt Q96RI1); test: FXR Coactivator Assay (LanthaScreen TR-FRET); format: biochemical
T2 construct: Add 5 μl of 4×FXR-LBD to 384 well assay plates; purchased
T2 sequence (Q96RI1 262-486 limits assumed): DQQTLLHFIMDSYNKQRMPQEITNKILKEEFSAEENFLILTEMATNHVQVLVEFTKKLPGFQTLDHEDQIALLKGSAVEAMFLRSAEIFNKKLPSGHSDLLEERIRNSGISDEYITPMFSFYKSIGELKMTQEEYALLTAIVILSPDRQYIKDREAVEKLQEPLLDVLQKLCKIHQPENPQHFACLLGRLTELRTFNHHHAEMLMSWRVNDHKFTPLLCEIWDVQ
Procedure: as §1

| Compound | EC50 (FXR) [nM] | EC50 (FXR-LBD) [nM] |
| --- | --- | --- |
| CC1(c2nc3ccc(C(=O)O)cc3s2)CC1c1ccc(OCc2c(-c3c(Cl)cccc3Cl)noc2C2CC2)cc1Cl (stereo not shown) [IV-17] | 101 to 400 |  |
| CC1(c2cncc(C(=O)O)c2)CC1c1ccc(OCc2c(-c3c(Cl)cncc3Cl)noc2C2CC2)cc1Cl (stereo not shown) [IV-08] | 101 to 400 |  |
| Cc1cc(C(=O)O)cc(C2CC2(C#N)c2ccc(OCc3c(-c4c(Cl)cccc4Cl)noc3C3CC3)cc2Cl)c1 (stereo not shown) [VII-10] | 10 to 100 |  |
| COc1ccc(C(=O)O)cc1C1CC1(C#N)c1ccc(OCc2c(-c3c(Cl)cccc3Cl)noc2C2CC2)cc1Cl (stereo not shown) [VII-09] | 101 to 400 |  |
| N#CC1(c2ccc(OCc3c(-c4c(Cl)cccc4Cl)noc3C3CC3)cc2Cl)CC1c1cccc(C(=O)O)c1 (single isomer, unassigned) [VII-03-2, 3-[2-(2-Chloro-4-[[5-cyclopropyl-3-(2,6-dichlorophenyl)-1,2-oxazol-4-yl]methoxy]phenyl)-2-cyanocyclopropyl] benzoic Acid] | 10 to 100 |  |
| Cc1ccc(C(=O)O)cc1C1CC1(C#N)c1ccc(OCc2c(-c3c(Cl)cccc3Cl)noc2C2CC2)cc1Cl (stereo not shown) [VII-08] | 10 to 100 |  |
| CC1(c2cncc(C(=O)O)c2)CC1c1ccc(OCc2c(-c3c(Cl)cccc3Cl)noc2C2CC2)cc1Cl (single isomer, unassigned) [IV-06-1, 5-[2-(2-Chloro-4-[[5-cyclopropyl-3-(2,6-dichlorophenyl)-1,2-oxazol-4-yl]methoxy]phenyl)-1-methylcyclopropyl] pyridine-3-carboxylic Acid] | 101 to 400 |  |
| CC1(c2cncc(C(=O)O)c2)CC1c1ccc(OCc2c(-c3ccccc3OC(F)F)noc2C2CC2)cc1Cl (stereo not shown) [IV-10] | 101 to 400 |  |
| CC(C)c1onc(-c2c(Cl)cccc2Cl)c1COc1ccc(C2(C)CC2c2nc3c(F)cc(C(=O)O)cc3s2)c(Cl)c1 (stereo not shown) [VI-08] | 10 to 100 |  |
| CC1(c2ncc(C(=O)O)s2)CC1c1ccc(OCc2c(-c3c(Cl)cccc3Cl)noc2C2CC2)cc1Cl (stereo not shown) [IV-19, 2-(2-(2-Chloro-4-((5-cyclopropyl-3-(2,6-dichlorophenyl)isoxazol-4-yl)methoxy)phenyl)-1-methylcyclopropyl) thiazole-5-carboxylic Acid] |  | 101 to 400 |
| CC1(c2cncc(C(=O)NCC(=O)O)c2)CC1c1ccc(OCc2c(-c3c(Cl)cccc3Cl)noc2C2CC2)cc1Cl (stereo not shown) [IV-12, 2-([5-[2-(2-Chloro-4-[[5-cyclopropyl-3-(2,6-dichlorophenyl)-1,2-oxazol-4-yl]methoxy]phenyl)-1-methylcyclopropyl]pyridin-3-yl] formamido) Acetic Acid] | 401 to 5000 |  |
| CC(C)c1onc(-c2c(Cl)cccc2Cl)c1COc1ccc(C2(C)CC2c2nc3ccc(C(=O)O)cc3s2)c(Cl)c1 (stereo not shown) [VI-11] | 10 to 100 |  |
| CC1(c2cncc(C(=O)O)c2)CC1c1ccc(OCc2c(-c3ccccc3OC(F)(F)F)noc2C2CC2)cc1Cl (stereo not shown) [IV-09, 5-[2-[2-Chloro-4-([5-cyclopropyl-3-[2-(trifluoromethoxy)phenyl]-1,2-oxazol-4-yl]methoxy)phenyl]-1-methylcyclopropyl] pyridine-3-carboxylic Acid] | 101 to 400 |  |
| CC1(c2cncc(C(=O)NCCS(=O)(=O)O)c2)CC1c1ccc(OCc2c(-c3c(Cl)cccc3Cl)noc2C2CC2)cc1Cl (stereo not shown) [IV-13] |  | 10 to 100 |
| N#CC1(c2cncc(C(=O)O)c2)CC1c1ccc(OCc2c(-c3c(Cl)cccc3Cl)noc2C2CC2)cc1Cl (stereo not shown) [Compound V-04, 5-[2-(2-Chloro-4-[[5-cyclopropyl-3-(2,6-dichlorophenyl)-1,2-oxazol-4-yl]methoxy]phenyl)-1-cyanocyclopropyl] pyridine-3-carboxylic Acid] | 401 to 5000 |  |
| CC(C)c1cnn(-c2c(Cl)cccc2Cl)c1COc1ccc(C2CC2(C)c2cncc(C(=O)O)c2)c(Cl)c1 (stereo not shown) [IV-11] | 10 to 100 |  |
| CC(C)c1onc(-c2c(Cl)cccc2Cl)c1COc1ccc(C2(C)CC2c2ncc(C(=O)O)s2)c(Cl)c1 (stereo not shown) [VI-12, 2-(2-(2-Chloro-4-((3-(2,6-dichlorophenyl)-5-isopropylisoxazol-4-yl)methoxy)phenyl)-2-methylcyclopropyl) thiazole-5-carboxylic Acid] | 10 to 100 |  |

| Compound | EC50 (FXR) [nM] | EC50 (FXR-LBD) [nM] |
| --- | --- | --- |
| CC(C)c1onc(-c2c(Cl)cccc2Cl)c1COc1ccc(C2CC2(C)c2ccc3c(c2)c(C(=O)O)nn3C(C)C)c(Cl)c1 (stereo not shown) [IV-14] | 401 to 5000 |  |
| COc1cc(C(=O)O)cc2sc(C3CC3(C#N)c3ccc(OCc4c(-c5c(Cl)cccc5Cl)noc4C4CC4)cc3Cl)nc12 (stereo not shown) [VII-06, 2-[2-(2-Chloro-4-[[5-cyclopropyl-3-(2,6-dichlorophenyl)-1,2-oxazol-4-yl]methoxy]phenyl)-2-cyanocyclopropyl]-4-methoxy-1,3-benzothiazole-6-carboxylic Acid] | 101 to 400 |  |
| CC1(c2cccc(C(=O)O)c2)CC1c1ccc(OCc2c(-c3c(Cl)cncc3Cl)noc2C2CC2)cc1Cl (stereo not shown) [IV-04] | 101 to 400 |  |
| CC1(c2ccc(OCc3c(-c4c(Cl)cccc4Cl)noc3C3CC3)cc2Cl)CC1c1cc(C(=O)O)ccn1 (stereo not shown) [VI-07] | 101 to 400 |  |
| N#CC1(c2ccc(OCc3c(-c4c(Cl)cccc4Cl)noc3C3CC3)cc2Cl)CC1c1cncc(C(=O)O)c1 (stereo not shown) [VII-05, 5-(2-(4-((3-(2,6-Dichlorophenyl)-5-cyclopropylisoxazol-4-yl)methoxy)-2-chlorophenyl)-2-cyanocyclopropyl) pyridine-3-carboxylic Acid] | 401 to 5000 |  |
| CC1(c2cncc(C(=O)O)c2)CC1c1ccc(OCc2c(-c3c(Cl)cccc3Cl)noc2C2CC2)cc1Cl (single isomer, unassigned) [IV-06-2, 5-[2-(2-Chloro-4-[[5-cyclopropyl-3-(2,6-dichlorophenyl)-1,2-oxazol-4-yl]methoxy]phenyl)-1-methylcyclopropyl] pyridine-3-carboxylic Acid] | 10 to 100 |  |
| COc1cc(C(=O)O)cc2sc(C3CC3(C)c3ccc(OCc4c(-c5c(Cl)cccc5Cl)noc4C(C)C)cc3Cl)nc12 (stereo not shown) [VI-10] |  | 101 to 400 |
| CC1(c2ccc(OCc3c(-c4c(Cl)cccc4Cl)noc3C3CC3)cc2Cl)CC1c1ccnc(C(=O)O)c1 (stereo not shown) [VI-06] | 10 to 100 |  |
| COc1cc(C(=O)O)cc2sc(C3(C)CC3c3ccc(OCc4c(-c5c(Cl)cccc5Cl)noc4C(C)C)cc3Cl)nc12 (stereo not shown) [IV-16] | 101 to 400 |  |
| CC(C)n1nc(C(=O)O)cc1C1CC1(C#N)c1ccc(OCc2c(-c3c(Cl)cccc3Cl)noc2C2CC2)cc1Cl (stereo not shown) [VII-07] | 401 to 5000 |  |
| N#CC1(c2cccc(C(=O)O)c2)CC1c1ccc(OCc2c(-c3c(Cl)cccc3Cl)noc2C2CC2)cc1Cl (stereo not shown) [Compound V-03] | 401 to 5000 |  |
| CC1(c2ccc(OCc3c(-c4c(Cl)cccc4Cl)noc3C3CC3)cc2Cl)CC1c1nc2c(F)cc(C(=O)O)cc2s1 (stereo not shown) [VI-09] | 10 to 100 |  |
| CC1(c2ccc(OCc3c(-c4c(Cl)cccc4Cl)noc3C3CC3)cc2Cl)CC1c1ncc(C(=O)O)s1 (stereo not shown) [VI-13] | 10 to 100 |  |
| CC(C)c1onc(-c2c(Cl)cccc2Cl)c1COc1ccc(C2CC2(CN)c2ccc(C(=O)O)cc2)c(Cl)c1 (stereo not shown) [Compound V2-01, 4-[1-(Aminomethyl)-2-(2-chloro-4-[[3-(2,6-dichlorophenyl)-5-(propan-2-yl)-1,2-oxazol-4-yl]methoxy]phenyl)cyclopropyl] benzoic Acid Hydrochloride] |  | 401 to 5000 |
| CC1(c2ccc(OCc3c(-c4c(Cl)cccc4Cl)noc3C3CC3)cc2Cl)CC1c1cccc(C(=O)O)c1 (stereo not shown) [VI-03] | 10 to 100 |  |
| Cc1cc(C(=O)O)cc2sc(C3(C)CC3c3ccc(OCc4c(-c5c(Cl)cccc5Cl)noc4C4CC4)cc3Cl)nc12 (stereo not shown) [IV-18] |  | 401 to 5000 |
| CC1(c2ccnc(C(=O)O)c2)CC1c1ccc(OCc2c(-c3c(Cl)cccc3Cl)noc2C2CC2)cc1Cl (stereo not shown) [IV-07] | 401 to 5000 |  |
